Test results from patent publication US20230263909A1, “ENHANCED EFFECTS OF GENE-IMMUNOTHERAPY AND IMMUNOSUPPRESSANTS IN MULTIPLE SCLEROSIS” (University of Florida Research Foundation, Incorporated, priority 2020, published 2023).
Where two headings read alike, the source gives them in different places.

Columns and labels:
MOG35-55-induced EAE = conditions: vector at MCS <2.5, PRDL at MCS ≥ 3.0 (FIG. 33A)
Procedure: Using 8-week-old Female C57BL/6 mice, EAE was induced with a myelin oligodendrocyte glycoprotein epitope (MOG35-55) in CFA. As mice developed disease (MCS 2.0± 0.5), mice were injected with a hepatocyte-directed viral vector encoding MOG (e.g., AAV.MOG vector) and began daily administration of prednisolone (PRDL) via oral gavage (10 mg/kg animal) every 24 hours until day 7. Control mice were treated with prednisolone only, without the administration of vector or with Null vector. At day 7, prednisolone treatment was discontinued, except for the half of the control group receiving treatment which continued receiving prednisolone.
An experiment was performed to assess the effect of supplementing rAAV therapy with PRDL in high clinical score mice. C57BL/6 mice were administered AAV.MOG or AAV.Null control at disease onset, or a mean clinical score of 2.0±0.5. Subsequently, at the peak of disease, or an MCS ≥ 3.0, mice were administered oral gavage of PRDL (10 mg/kg). […] Subsequently, at an MCS ≥ 3.0, mice were administered oral gavage of PRDL (10 mg/kg).
In an experiment in which the order of administrations was essentially reversed, C57BL/6 mice received AAV.MOG or AAV.Null after EAE developed to an MCS of 2.5 or higher. At the peak of disease (MCS ≥3.0), mice were started on oral gavage of PRDL as before.

[1] = test system: plasma alanine aminotransferase (ALT); test: Plasma alanine aminotransferase (ALT) activity; assay type: in vivo, C57BL/6 mice
From the text: Although various proteins have been safely expressed in the liver following AAV gene transfer,^89 evaluating the long-term stability of MOG expression in hepatocytes in the context of induced EAE was of interest. […] Additionally, hepatocyte expression of MOG persisted in the mice that received AAV8.MOG until termination of experiment at 200 days after EAE induction (FIG. 20A).
Plasma ALT levels were also monitored as an indicator of liver damage and failure of therapy. As reported above, the level of ALT activity detected in AAV8.MOG-treated mice and control mice was unremarkable throughout the rapamycin treatment window (FIGS. 24G and 24H). […] Based on the profound level of neurological impairment the control mice were experiencing, the significant rise in ALT is indicative of liver toxicity associated with end-stage organ failure (FIGS. 24B and 24C).

[2] = test system: established MOG35-55-induced EAE; test: Therapeutic AAV8.MOG with transient rapamycin immunosuppression in established EAE; assay type: in vivo, C57BL/6 mice
Procedure: Vector Administration. […] Two weeks later, EAE was induced. To evaluate the therapeutic effect of vector administration, EAE was induced first in 9- to 11-week-old mice before the administration of vectors. As mice reached the targeted/indicated severity of disease they were injected with […] of AAV8.MOG or control vector (scAAV.GFP or sham/PBS) via the tail vein. Rapamycin (LC Laboratories, Woburn, MA, USA) was dissolved in a vehicle solution containing (0.2% w/v) carboxymethyl-cellulose sodium salt (C-5013) and (0.25% v/v) polysorbate-80 (P-8074) (Sigma, St. Louis, MO, USA) in distilled water and stored at 4° C. protected from light according to the manufacturer’s instructions. Rapamycin (5 mg/kg) was given i.p. as indicated for a total of three and five doses beginning on the day of vector administration.
To test the hypothesis, the experimental parameters that previously produced the smallest degree of disease reversal were reestablished (FIG. 23C). EAE was induced and AAV8.MOG treatment was withheld until mice developed complete tail paralysis with hind-leg paresis (MCS: 1.4 ± 0.1, combined). Immediately after being treated with either AAV8.MOG or PBS/control, all mice received an intraperitoneal injection of rapamycin (5 mg/kg). Subsequently, mice received two additional doses of rapamycin (5 mg/kg) 48 hr apart (FIGS. 24). As expected, EAE disease progressed quickly and both groups of mice developed severe neurological deficits and paralysis (peak MCS: 2.9-3.0) (FIG. 24A). […] In contrast, neurological deficits in AAV8.MOG-treated mice continued to decrease, and all but one animal (90%) achieved complete remission (final MCS: 0.5 ± 0.3) (FIG. 24A).
Next, the effectiveness of the combined immunotherapy in late and end-stage EAE disease was tested. […] Remarkably, mice that received the AAV8.MOG/rapamycin immunotherapy, 71% (FIG. 24B) and 80% (FIG. 24C), respectively, responded to the treatment and went into near-complete remission (MCS: […]) by day ~30.

CD4+CD25hiFOXP3+ Tregs = test: Peripheral blood Treg phenotyping before and after rapamycin; assay type: in vivo, C57BL/6 mice; conditions: after rapamycin
From the text: Flow Cytometry. Peripheral blood cells or splenocytes harvested from mice and processed to produce single-cell suspensions were stained with antibodies to CD3 (145-2C11), CD4 (RM4-5), CD25 (PC61), CD8 (53-6.7), B220 (RA3-6B2), CD44 (IM7), and CD62L (MEL14) (BD Biosciences, San Jose, CA, USA). Class II MHC tetramers included MOG38-49/I-Ab class II MHC (GWYRSPFSRVVH) and h.CLIP87-101 (PVSKMRMATPLLMQA), and were provided by the NIH Tetramer Core (Emory University, Atlanta, GA, USA). Red blood cell lysis was performed with VersaLyse (Beckman Coulter, Brea, CA, USA). Intracellular staining for FOXP3 was performed using the FOXP3 staining kit (eBioscience, San Diego, CA, USA). Samples were analyzed on an LSR-II flow cytometer (BD Biosciences) and post-analyzed using FCS Express 4 (Denovo Software, Los Angeles, CA, USA).
Rapamycin blocks the activation of a serine/threonine protein kinase called mammalian target of rapamycin (mTOR), which has a potent anti-proliferative effect on antigen-stimulated effector T and B cells. […] In contrast, when analyzed after the final rapamycin dose on day 10, there was an ~33% difference in total Tregs between control mice receiving rapamycin alone and AAV8.MOG-treated animals (FIGS. 24D and 24E).
CD44 is a cell-surface glycoprotein involved in cell-to-cell interactions that are important in activation, migration, and apoptosis.

Compound | effect of PRDL on induction of tolerance by vector (MOG35-55-induced EAE) | effect of PRDL on induction of tolerance by vector (MOG35-55-induced EAE; listed as PDRL) | plasma ALT levels ([1]; 35 days post-treatment) | plasma ALT activity ([1]; throughout the rapamycin treatment window) | final MCS ([2]; rapamycin-only control mice, 35 days post-treatment, late-stage cohorts) | final MCS ([2]; treated at MCS 1.4 ± 0.1, all mice rapamycin 5 mg/kg i.p. x3) | mice relapsed by day 10 ([2]; treated at MCS 1.4 ± 0.1, rapamycin without vector) | increase in activated Tregs (CD4+CD44+CD25hiFOXP3+) (CD4+CD25hiFOXP3+ Tregs)
C[C@]12C=CC(=O)C=C1CC[C@@H]1[C@@H]2[C@@H](O)C[C@@]2(C)[C@H]1CC[C@]2(O)C(=O)CO [PRDL, prednisolone] | did not interfere with induction of tolerance | did not interfere with, nor supplement, the ability of AAV.MOG to suppress EAE |  |  |  |  |  | 
CO[C@H]1C[C@@H]2CC[C@@H](C)[C@@](O)(O2)C(=O)C(=O)N2CCCC[C@H]2C(=O)O[C@H]([C@H](C)C[C@@H]2CC[C@@H](O)[C@H](OC)C2)CC(=O)[C@H](C)/C=C(\C)[C@@H](O)[C@@H](OC)C(=O)[C@H](C)C[C@H](C)/C=C/C=C/C=C/1C [rapamycin] |  |  | significant increase in plasma ALT levels | unremarkable | 3.6 ± 0.5 | 3.5 ± 0.3 | 100% | 10.5%
